Laboratory results as given in the supplement of paper PMC8671470.
± gives the standard deviation of the averaged measurements.

Assays:
Conditions in all cases: 72 h
HL-60 [1] = test: cell viability (% survival relative to DMSO control); higher = less cytotoxic
Procedure, shortened: (§1)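 Four-parameter log-logistic fits in drc and PharmacoGx supplied area under the curve where it is given. Underlying viability came from CellTiter-Glo, normalised to DMSO and proteasome-inhibitor wells, with the proteasome inhibitor at 10 μM. HL-60 cells in RPMI 1640 plus 10% FBS had been rescreened against the full library at five tenfold concentrations of 1–10,000 nM, in duplicate on 384-well plates, with DMSO or 100 nM of one of three metabolic inhibitors, for 72 h at 37 °C, 5% CO2.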

HL-60 [2] = test: area under dose-response curve (viability, 1 nM-10 uM) (fraction (0-1)); higher = more sensitive
Procedure, shortened: as §1

BV-173 [3] = test system: BV-173
Procedure, shortened: (§2)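 For the IC50, dose–response curves were fitted with a log-logistic model. The data came from fifteen myeloid leukaemia cell lines grown in RPMI 1640 at densities in the linear growth range and incubated in 384-well plates for 72 h at 37 °C under 5% CO2. Doses were five tenfold steps from 1 to 10,000 nM in duplicate, and luminescent ATP viability was normalised to vehicle and to a positive control at 10 µM before four-parameter fitting.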

HEL [4] = test system: HEL
Procedure, shortened: as §2

HL-60 [5] = test system: HL-60
Procedure, shortened: as §2

K-562 [6] = test system: K-562
Procedure, shortened: as §2

KCL-22 [7] = test system: KCL-22
Procedure, shortened: as §2

KG-1 [8] = test system: KG-1
Procedure, shortened: as §2

KU-812 [9] = test system: KU-812
Procedure, shortened: as §2

LAMA-84 [10] = test system: LAMA-84
Procedure, shortened: as §2

ML-2 [11] = test system: ML-2
Procedure, shortened: as §2

MOLM-13 [12] = test system: MOLM-13
Procedure, shortened: as §2

MV4-11 [13] = test system: MV4-11
Procedure, shortened: as §2

Mono-Mac-6 [14] = test system: Mono-Mac-6
Procedure, shortened: as §2

NOMO-1 [15] = test system: NOMO-1
Procedure, shortened: as §2

SHI-1 [16] = test system: SHI-1
Procedure, shortened: as §2

THP-1 [17] = test system: THP-1
Procedure, shortened: as §2

BV-173 [18] = test: cell viability (% survival relative to DMSO control, bortezomib = 0%); higher = less cytotoxic
Procedure, shortened: (§3)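 Seeding density for each of the 10 AML and 5 CML cell lines was titrated to the linear growth range. Cells went into 384-well plates pre-printed in duplicate with compounds at 1, 10, 100, 1000 or 10000 nM and were held for 72 h at 37 °C with 5% CO2. CellTiter-Glo luminescence then provided the readout. Percent survival is expressed relative to vehicle at 100% and a 10 µM positive control at 0%, averaged over duplicates.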

HEL [19] = test: as above
Procedure, shortened: as §3

HL-60 [20] = test: as above
Procedure, shortened: as §3

K-562 [21] = test: as above
Procedure, shortened: as §3

KCL-22 [22] = test: as above
Procedure, shortened: as §3

KG-1 [23] = test: as above
Procedure, shortened: as §3

KU-812 [24] = test: as above
Procedure, shortened: as §3

LAMA-84 [25] = test: as above
Procedure, shortened: as §3

ML-2 [26] = test: as above
Procedure, shortened: as §3

MOLM-13 [27] = test: as above
Procedure, shortened: as §3

MV4-11 [28] = test: as above
Procedure, shortened: as §3

Mono-Mac-6 [29] = test: as above
Procedure, shortened: as §3

NOMO-1 [30] = test: as above
Procedure, shortened: as §3

SHI-1 [31] = test: as above
Procedure, shortened: as §3

THP-1 [32] = test: as above
Procedure, shortened: as §3

CC(C)(O)CNc1nc(Nc2ccnc(C(F)(F)F)c2)nc(-c2cccc(C(F)(F)F)n2)n1 [AG-221]
cell viability [%], HL-60 [1]
Conditions | 0.001 µM | 0.01 µM | 0.1 µM | 1 µM | 10 µM
co-treatment: AZD3965 100 nM | 93.5 ± 4.8 | 105 ± 3 | 100 ± 5.2 | 98.6 ± 2.3 | 104 ± 2.8
co-treatment: DMSO vehicle | 96.6 ± 2.4 | 102 ± 7.7 | 101 ± 3.7 | 97.1 ± 1.5 | 103 ± 1.9
co-treatment: GSK2194069 100 nM | 85.8 ± 1.6 | 95.9 ± 8.7 | 100 ± 9.9 | 89 ± 5.2 | 94.2 ± 2.1
co-treatment: pictilisib 100 nM | 89.3 ± 3.3 | 104 ± 3 | 102 ± 8.6 | 94.9 ± 0.96 | 108 ± 5.6

HL-60 [2]
Conditions | area under dose-response curve
co-treatment: AZD3965 100 nM | < 0.0301
co-treatment: DMSO vehicle | < 0.0301
co-treatment: GSK2194069 100 nM | < 0.0301
co-treatment: pictilisib 100 nM | < 0.0301

CCOC(=O)c1cncn1[C@H](C)c1ccccc1 [Etomidate]
Conditions | IC50 (cell viability) [µM]
BV-173 [3] | > 10
HEL [4] | > 10
HL-60 [5] | > 10
K-562 [6] | > 10
KCL-22 [7] | > 10
KG-1 [8] | > 10
KU-812 [9] | > 10
LAMA-84 [10] | > 10
ML-2 [11] | > 10
MOLM-13 [12] | > 10
MV4-11 [13] | > 10
Mono-Mac-6 [14] | > 10
NOMO-1 [15] | > 10
SHI-1 [16] | > 10
THP-1 [17] | > 10

N#Cc1ccnc(N2C(=O)CC[C@H]2C(=O)N(c2cncc(F)c2)C(C(=O)NC2CC(F)(F)C2)c2ccccc2Cl)c1 (some centres undefined) [Ivosidenib]
Conditions | IC50 (cell viability) [µM]
BV-173 [3] | > 10
HEL [4] | > 10
HL-60 [5] | > 10
K-562 [6] | > 10
KCL-22 [7] | > 10
KG-1 [8] | > 10
KU-812 [9] | > 10
LAMA-84 [10] | > 10
ML-2 [11] | > 10
MOLM-13 [12] | > 10
MV4-11 [13] | > 10
Mono-Mac-6 [14] | > 10
NOMO-1 [15] | > 10
SHI-1 [16] | > 10
THP-1 [17] | > 10

cell viability [%]
Conditions | 1 nM | 10 nM | 100 nM | 1000 nM | 10000 nM
BV-173 [18] | 93.2 | 95.1 | 95.8 | 104 | 92.2
HEL [19] | 89.5 | 104 | 114 | 105 | 121
HL-60 [20] | 112 | 100 | 116 | 95.3 | 92.1
K-562 [21] | 90.3 | 105 | 101 | 99.2 | 93.3
KCL-22 [22] | 92.3 | 95.3 | 110 | 99 | 93.3
KG-1 [23] | 92.4 | 105 | 106 | 98.2 | 78.2
KU-812 [24] | 92.7 | 102 | 107 | 106 | 87.4
LAMA-84 [25] | 112 | 101 | 110 | 107 | 81.4
ML-2 [26] | 107 | 85.4 | 105 | 98.1 | 92
MOLM-13 [27] | 111 | 103 | 109 | 96 | 95.1
MV4-11 [28] | 98 | 104 | 107 | 110 | 94.5
Mono-Mac-6 [29] | 97.8 | 88.9 | 108 | 90.2 | 81.5
NOMO-1 [30] | 97.8 | 95.6 | 103 | 104 | 90.8
SHI-1 [31] | 99.1 | 104 | 100 | 95.4 | 104
THP-1 [32] | 103 | 94.9 | 107 | 102 | 96
